From patent US20220265646A1, “PIEZO AGONISTS FOR PREVENTING OR REVERTING ABNORMAL AMYLOID DEPOSITION” (ITÄ-SUOMEN YLIOPISTO, priority 2019, published 2022)

Key:
[1] = tested on: 5xFAD transgenic mice modeling Alzheimer's disease; assay: 5xFAD transgenic mice, intraventricular cannula infusion, immunohistochemistry for Iba1 and Aβ (WO2); type: in vivo, mouse; conditions: 5xFAD mice, treated for 2 weeks
Source text: To evaluate the effect of microglial Piezo1 Rs mechanosensor in vivo the present inventors used 5-month-old transgenic SXFAD male mice (Jackson Laboratories, Bar Harbor, Me., US) which were randomly divided into 3 groups. 5xFAD mice express human APP and PSEN1 transgenes with a total of five AD-linked mutations: the Swedish (K670N/M671L), Florida (1716V), and London (V7171) mutations in APP, and the M146L and L286V mutations in Presenilin-1 (PSEN1). These widely used mice recapitulate many AD-related phenotypes and have a relatively early and aggressive presentation. Amyloid plaques, accompanied by gliosis, are seen in mice as young as two months of age. Amyloid pathology is more severe in females than in males. Neuron loss occurs in multiple brain regions, beginning at about 5 months in the areas with the most pronounced amyloidosis. Mice display a range of cognitive and motor deficits. The animals were implanted with the intraventricular cannulas. Briefly, surgical anesthesia was induced using 5% isoflurane and maintained with 1.8% isoflurane (in 30% 02/70% N20). The temperature of the animals was maintained at 37±0.5° C. using a thermostatically controlled heating blanket with a rectal probe (Pan Lab, Harvard Apparatus). After the skull was exposed a small hole approximately 1 mm in diameter was drilled into the left hemisphere of the skull using following coordinates: m/l (medial/lateral) +1.1 mm, a/p (anterior/posterior) −0.3 mm, d/v (dorsal/ventral) −2.0 mm. […]
Brain sample preparation and Immunohistochemistry. […] Next, Aβ deposits and microglial were detected. […] For quantification of Aβ and Iba1 immunoreactivities, the stained sections were imaged using 10× magnification in Zeiss Axio ImagerM.2 microscope equipped with Axiocam 506 mono CCD camera (Carl Zeiss, Oberkochen) running ZEN software (Carl Zeiss) for tailing and stitching of the images. Cortical and hippocampal Aβ and Iba1 immunoreactivities were quantified from 6 stained sections at 400 μm intervals per animal using MatLab code (MathWorks, MatLab 2017b). […]

Piezo1Rs = molecular target: T1, Piezo1Rs (Homo sapiens, UniProt Q92508); assay: Calcium imaging of Yoda1-evoked Ca2+ transients in SV-40 immortalized human microglia cell line; type: cell-based; conditions: control SV-40 cells, n=13
T1 construct: SV-40 immortalized human microglia cell line which endogenously express Piezo-1 and Piezo2Rs was used; endogenous in cells; host or cells: SV-40 immortalized human microglia cell line
T1 sequence (Q92508 whole entry): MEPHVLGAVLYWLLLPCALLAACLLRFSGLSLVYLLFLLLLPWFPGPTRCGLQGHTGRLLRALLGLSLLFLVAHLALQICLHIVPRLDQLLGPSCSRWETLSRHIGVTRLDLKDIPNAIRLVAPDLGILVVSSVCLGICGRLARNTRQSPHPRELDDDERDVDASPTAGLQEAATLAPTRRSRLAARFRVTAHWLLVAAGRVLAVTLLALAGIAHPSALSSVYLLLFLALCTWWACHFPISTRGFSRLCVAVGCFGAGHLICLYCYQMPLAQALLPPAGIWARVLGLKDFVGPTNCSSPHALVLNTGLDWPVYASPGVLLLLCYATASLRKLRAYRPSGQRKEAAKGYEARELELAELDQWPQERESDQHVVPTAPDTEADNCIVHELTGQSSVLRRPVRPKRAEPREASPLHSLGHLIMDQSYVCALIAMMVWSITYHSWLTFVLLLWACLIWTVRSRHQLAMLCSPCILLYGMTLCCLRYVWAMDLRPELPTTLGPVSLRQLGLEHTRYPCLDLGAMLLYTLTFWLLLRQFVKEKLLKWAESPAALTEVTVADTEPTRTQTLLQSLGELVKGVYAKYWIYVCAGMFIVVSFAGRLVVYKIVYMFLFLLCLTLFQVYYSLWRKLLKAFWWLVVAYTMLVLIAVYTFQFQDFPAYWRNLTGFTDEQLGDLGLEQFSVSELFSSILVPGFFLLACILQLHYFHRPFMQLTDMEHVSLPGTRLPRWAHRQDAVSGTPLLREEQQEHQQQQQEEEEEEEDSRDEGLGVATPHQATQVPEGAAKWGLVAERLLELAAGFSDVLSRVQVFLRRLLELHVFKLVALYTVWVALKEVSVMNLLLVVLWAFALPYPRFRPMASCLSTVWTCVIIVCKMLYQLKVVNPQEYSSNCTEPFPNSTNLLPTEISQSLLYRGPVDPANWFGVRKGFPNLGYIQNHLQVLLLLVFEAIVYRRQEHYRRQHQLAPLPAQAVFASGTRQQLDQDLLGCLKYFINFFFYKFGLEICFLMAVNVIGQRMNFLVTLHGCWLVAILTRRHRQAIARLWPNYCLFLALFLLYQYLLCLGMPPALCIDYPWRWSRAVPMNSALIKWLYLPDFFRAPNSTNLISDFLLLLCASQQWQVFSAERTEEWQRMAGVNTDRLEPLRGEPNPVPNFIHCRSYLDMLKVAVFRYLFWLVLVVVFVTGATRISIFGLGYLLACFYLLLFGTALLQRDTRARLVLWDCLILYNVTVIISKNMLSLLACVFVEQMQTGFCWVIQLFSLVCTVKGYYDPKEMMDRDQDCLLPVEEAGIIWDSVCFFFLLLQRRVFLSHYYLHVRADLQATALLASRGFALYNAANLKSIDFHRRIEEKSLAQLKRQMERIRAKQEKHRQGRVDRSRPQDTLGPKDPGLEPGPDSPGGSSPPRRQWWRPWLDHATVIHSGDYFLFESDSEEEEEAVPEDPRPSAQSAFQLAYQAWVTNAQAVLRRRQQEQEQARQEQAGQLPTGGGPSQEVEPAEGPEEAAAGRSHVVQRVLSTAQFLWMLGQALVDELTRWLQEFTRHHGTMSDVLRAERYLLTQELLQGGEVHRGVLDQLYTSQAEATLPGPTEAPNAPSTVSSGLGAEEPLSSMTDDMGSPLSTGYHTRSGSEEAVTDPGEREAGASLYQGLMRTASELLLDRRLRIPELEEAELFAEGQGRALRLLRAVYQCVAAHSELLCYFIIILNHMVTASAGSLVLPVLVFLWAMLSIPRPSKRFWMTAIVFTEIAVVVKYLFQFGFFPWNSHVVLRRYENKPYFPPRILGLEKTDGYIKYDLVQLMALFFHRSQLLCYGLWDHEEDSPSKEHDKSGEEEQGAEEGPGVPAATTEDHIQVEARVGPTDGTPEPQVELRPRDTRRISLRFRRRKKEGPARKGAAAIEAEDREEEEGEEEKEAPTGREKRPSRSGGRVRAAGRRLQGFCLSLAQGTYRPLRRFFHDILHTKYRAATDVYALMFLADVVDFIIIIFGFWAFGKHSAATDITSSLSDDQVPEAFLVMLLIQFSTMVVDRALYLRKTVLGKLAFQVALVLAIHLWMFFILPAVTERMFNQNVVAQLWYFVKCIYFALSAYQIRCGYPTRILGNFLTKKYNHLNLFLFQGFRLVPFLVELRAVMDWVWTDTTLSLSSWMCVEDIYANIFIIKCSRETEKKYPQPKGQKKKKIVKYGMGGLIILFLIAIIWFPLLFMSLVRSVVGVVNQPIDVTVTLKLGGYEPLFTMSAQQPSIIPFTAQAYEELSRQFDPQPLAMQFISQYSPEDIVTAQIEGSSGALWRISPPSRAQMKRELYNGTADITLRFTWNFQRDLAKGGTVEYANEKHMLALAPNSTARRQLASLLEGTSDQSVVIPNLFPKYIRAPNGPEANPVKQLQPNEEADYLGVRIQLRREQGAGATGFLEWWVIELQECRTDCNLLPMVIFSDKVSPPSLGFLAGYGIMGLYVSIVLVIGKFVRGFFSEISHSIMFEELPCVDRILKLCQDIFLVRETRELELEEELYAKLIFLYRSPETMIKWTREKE
Experimental: To study the calcium influx evoked by native Piezo1 Rs expressed in microglia cells the present inventors used short Yoda1 applications (2 s, 50 μM if not otherwise specified). For this purpose, human IPSO derived microglia cells and SV-40 (immortalized human microglia) cells were seeded on 7 mm cover slips 1 day prior to the imaging experiment. Cells were loaded with the calcium-sensitive fluorescent dye Fluo-4AM (5 μM) for 30 min at 37° C. Followed by wash-incubation for 15 min in Ab 20 μM, 50 μM GdCI and basic solution (BS) as a control at 37° C. The basic solution containing the following (BS, in mM): 2.5 KCl, 152 NaCl, 10 glucose, 2 CaCl2, and 10 HEPES at pH 7.4. Fluorescence was visualized using monochromatic light source (TILL Photonics GmbH) using Ex/Im 494/[…] and a CCD camera (SensiCam). […] To quantify the difference in the amplitude of calcium transients, the ratio values were normalized by subtracting a baseline and further divided by the amplitude of the calcium transient to the 2 sec application of the ionomycin. Data were pre-analyzed offline using the FEI offline analysis (TILL Photonics), and further analysis was automatized using MatLab. Quantitative data were expressed as means±SEM unless otherwise stated. […] Significance assessed with the ANOVA test or Mann-Whitney t test for non-parametric data. […]

hIPSC-derived microglia = assay: Cytokine measurement (cytokine bead assay) in LPS-treated iPSC-derived microglia; type: cell-based, human; conditions: Yoda1 20 μM (Y20), n=4 per group
Experimental: Cytokine measurement. The impact of Piezo1Rs effect on the capacity of the iPSC derived microglia to release cytokines was evaluated using cytokine bead assay (CBA, PD Pharmingen)). Shortly, prior to the experiment IPSCs were plated in 24-well plate at 70,000 cells/cm^2 and cultured for 48 hours. […] Next, media were collected, centrifuged to remove any cell debris, and the supernatant was frozen at −70° C. Cytokines were analyzed with cytometric bead array mouse inflammation kit (BD Biosciences) according to manufacturer's instructions.

[2] = 0.05 μg/μl, 5 μl infusion once a day

Clc1cccc(Cl)c1CSc1nnc(-c2cnccn2)s1 [Yoda1]
microglial accumulation near the Aβ deposits [1]: enhanced microglial accumulation
Iba1 immunoreactivity in cortex and hippocampus [1, 2]: significantly increased
extent of brain Aβ load in cortex and hippocampi (WO2 staining) [1, 2]: significant reduction
Yoda1 activated Ca2+ transients, amplitude normalized to ionomycin (Piezo1Rs): 0.82±0.14
secretion of anti-inflammatory IL-10 (hIPSC-derived microglia; LPS): increases the secretion
LPS induced secretion of pro-inflammatory IL-6 (hIPSC-derived microglia): prevented the LPS induced secretion
LPS induced secretion of pro-inflammatory IL-8 (hIPSC-derived microglia): prevented the LPS induced secretion
LPS induced secretion of pro-inflammatory MCP1 (hIPSC-derived microglia): prevented the LPS induced secretion
